Source: patent publication US10772885B2, “Composition for treating ocular diseases and methods of usage and making” (REYOUNG (SUZHOU) BIOLOGY SCIENCE & TECHNOLOGY CO., LTD., priority 2016, dated 2020)

Tested on: CNV
Assay: Laser photocoagulation-induced CNV in rats (FP/FFA, fluorescein leakage grading)
Type: in vivo, Brown Norway (BN) rats
Conditions: for Mean fluorescein leakage score vs model group / Ratio of grade 3 light spots vs model group: after treatment
Experimental: Specific-pathogen-free (SPF) grade Brown Norway (BN) rats, half male and half female, were treated with fundus laser photocoagulation, the date of which was counted as D0. At D8, 32 rats with similar areas of fluorescence leakage were selected, separated to 8 groups, with each group including 4 rats (half male and half female): • Group 1 is a model group without any treatment. • Group 2 is a positive control group, in which Conbercept was injected into the vitreous cavity of the rats' eyes at the dosage of 50 μg/eye and […]. • In group 3, both eyes of the rats were administered with nintedanib ethanesulfonate at the dosage of 125 μg/eye and 6 times per day from day 8 and day 15 (D8˜D15). • In group 4, both eyes of the rats were administered with nintedanib ethanesulfonate at the dosage of 25 μg/eye and 6 times per day from day 8 and day 15 (D8˜D15). • In group 5, both eyes of the rats were administered with nintedanib ethanesulfonate at the dosage of 5 μg/eye and 6 times per day from day 8 and day 15 (D8˜D15). • In group 6, both eyes of the rats were administered with nintedanib ethanesulfonate at the dosage of 2.5 μg/eye and 6 times per day from day 8 and day 15 (D8˜D15). • In group 7, both eyes of the rats were administered with nintedanib ethanesulfonate at the dosage of 0.5 μg/eye and 6 times per day from day 8 and day 15 (D8 D15). • In […], both eyes of the rats were administered with nintedanib ethanesulfonate at the dosage of 0.1 μg/eye and 6 times per day from day 8 and day 15 (D8 D15).
All rats were tested with fundus photography (“FP”) and fundus fluorescein angiography (“FFA”) one day before administration and 8 days after administration. The degree of CNV was graded according to the degree of fluorescence leakage. The results were used to evaluate the effect of nintedanib ethanesulfonate on rat CNV, the results of which are shown in FIG. 2.
The ratio is calculate by comparing the early-phase and last-phase fluorescein angiograms. The fluorescence leakage of the light spots was graded as follows: grade 0 (no leakage); grade 1 (slight leakage, leakage area is 1%-50% of the light spot size); grade 2 (moderate leakage, leakage area is 50%-100% of the light spot size); grade 3 (strong leakage, leakage area is larger than the light spot size). The ratios of light spots for certain grade were calculated as follows: Ratio of light spot (%)=(the number of light spot at certain grade÷the sum of four kinds of light spots)×100.
The mean fluorescein leakage score is calculated as follows: Mean fluorescein leakage score=[(number of grade 0 light spot×0)+(number of grade 1 light spot×1)+(number of grade 2 light spot×2)+(number of grade 3 light spot×3)]÷the sum of four kinds of light spots

[1] = groups 3-6 (125, 25, 5, 2.5 μg/eye)
[2] = positive control group, 50 μg/eye into the vitreous cavity

Molecule | Ratio of grade 1 light spots vs positive control group (all groups) | Ratios of light spots, mean fluorescein leakage score and development of CNV (eye drops at 125, 25, 5, 2.5, 0.5 μg/eye) | Ratio of grade 1 light spots vs positive control group (fifth group (5 μg/eye), p≤0.05) | Leakage vs positive control group (group 5 (5 μg/eye), p≤0.05) | Ratio of grade 3 light spots vs positive control group [1] | Mean fluorescein leakage score vs model group [1] | Ratio of grade 3 light spots vs model group [1] | Ratio of grade 1 light spots vs model group (groups 3-6 (125, 25, 5, 2.5 μg/eye), p≤0.05) | Adverse reactions (groups 3 and 4 (125 and 25 μg/eye, 6 times per day, D8-D15), some of the animals) | Inhibition of CNV in rats (groups 4-6 (25, 5, 2.5 μg/eye), 1 week after photocoagulation) | Mean fluorescein leakage score (groups 7 and 8 (0.5 and 0.1 μg/eye)) | Adverse reactions (other groups (5, 2.5, 0.5, 0.1 μg/eye, 6 times per day, D8-D15)) | Ratio of the level 0 and level 2 light spot vs positive control group (other groups, p>0.05) | Inhibition of leakage vs positive control group (printed: first group) | Leakage caused by CNV (rat, in vivo) | Mean fluorescein leakage score vs model group [2] | Ratio of grade 3 light spots vs model group [2]
COC(=O)c1ccc2c(c1)NC(=O)/C2=C(\Nc1ccc(N(C)C(=O)CN2CCN(C)CC2)cc1)c1ccccc1 [nintedanib ethanesulfonate] | increased | can inhibit | significantly increased | significantly decreased | lower | significantly decreased | significantly decreased | increased | corneal opacity | significantly inhibited the CNV | no statistically significant difference | did not experience any significantly adverse reactions | no significant difference | slightly stronger | can inhibit the leakage caused by CNV | – | –
Conbercept: Monoclonal antibody or fusion protein targeting VEGF, developed by a Chinese company and launched in 2013; positive control | – | – | – | – | – | – | – | – | – | – | – | – | – | – | – | significantly decreased | significantly decreased
